The experiment deals with Frankliniella occidentalis (Western flower thrips). Kind of experiment: Test Example 2: sprayed cucumber leaf, larvae of Frankliniella occidentalis set free, surviving pests counted. In kind it is in vivo. Particulars: 500 ppm spray solution, 20 ml/cup, cucumber first true leaf, thirty larvae set free, after seven days. How it is done:
Ten parts of each of the present compounds (2), (4), (6), (7), (8), (11), (12), (14), (16), (17), (19) to (24), (26), (28), (29), (34), (36) to (38), and (40); white carbon containing 50 parts of polyoxyethylene alkyl ether sulfate ammonium salt; and […] of water were mixed and pulverized by the wet grinding method to give a formulation for each compound. The formulation of each present compound was diluted with water so that the active ingredient concentration came to 500 ppm to prepare a spray solution.
A polyethylene cup was seeded with cucumber and a plant was grown until the first true leaf was developed, to which the above spray solution was applied at a ratio of 20 ml/cup. After the chemical solution sprayed to the cucumber were dried, the first true leaf was cut off and placed on a filter paper (70 mm in diameter) impregnated with water in a polyethylene cup (110 mm in diameter). Thirty larvae of Frankliniella occidentalis (Western flower thrips) were set free on the first true leaf, which was covered with a polyethylene cup. After seven days, the number of surviving pests was examined.

SMILES strings stand for the structures.

`CC#CCOc1cc(OC(C)C2(C)CC2)ncn1` (stereo not drawn) [present compound (8), 4-(2-butynyloxy)-6-[1-(1-methylcyclopropyl)ethyloxy]pyrimidine]: the “number of surviving pests” value was found to be 0. Regarding `CC#CCOc1cc(OCC(C)(C)C)ncn1` [present compound (6), 4-(2-butynyloxy)-6-(2,2-dimethylpropyloxy)pyrimidine], the “number of surviving pests” value is 0.

With `CC#CCOc1cc(OC(C)C(C)(C)F)ncn1` (stereo not drawn) [present compound (14), 4-(2-butynyloxy)-6-(2-fluoro-1,2-dimethylpropyloxy)pyrimidine], the “number of surviving pests” value was 0. For `CC#CCOc1cc(OC(C)C(C)(C)Cl)ncn1` (stereo not drawn) [present compound (34), 4-(2-butynyloxy)-6-(2-chloro-1,2-dimethylpropyloxy)pyrimidine], the “number of surviving pests” value stood at 0. Regarding `CC#CCOc1cc(OCC(C)(C)F)ncn1` [present compound (28), 4-(2-butynyloxy)-6-(2-fluoro-2-methylpropyloxy)pyrimidine], the “number of surviving pests” value worked out at 0. `CCC#CCOc1cc(OCC(C)(C)Cl)ncn1` [present compound (40), 4-(2-pentynyloxy)-6-(2-chloro-2-methylpropyloxy)pyrimidine]: the “number of surviving pests” value is reported as 0.

In the case of `CC#CCOc1cc(OC(C)C(C)CC)ncn1` (stereo not drawn) [present compound (16), 4-(2-butynyloxy)-6-(1,2-dimethylbutyloxy)pyrimidine], the “number of surviving pests” value was found to be 0. With `CC#CCOc1cc(OC(CC)C(C)(C)C)ncn1` (stereo not drawn) [present compound (4), 4-(2-butynyloxy)-6-(1-ethyl-2,2-dimethylpropyloxy)pyrimidine], the “number of surviving pests” value was found to be 0. For `CC#CCOc1cc(OC(C)C(C)C)ncn1` (stereo not drawn) [present compound (12), 4-(2-butynyloxy)-6-(1,2-dimethylpropyloxy)pyrimidine], the “number of surviving pests” value is given as 0. In the case of `CC#CCOc1cc(OCCC(C)(C)C)ncn1` [present compound (11), 4-(2-butynyloxy)-6-(3,3-dimethylbutyloxy)pyrimidine], the “number of surviving pests” value stood at 0. `CC#CCOc1cc(OC(C)C2CC2)ncn1` (stereo not drawn) [present compound (2), 4-(2-butynyloxy)-6-(1-cyclopropylethoxy)pyrimidine]: the “number of surviving pests” value is given as 0. Next, `CC#CCOc1cc(OC(C)C(Cl)Cl)ncn1` (stereo not drawn) [present compound (29), 4-(2-butynyloxy)-6-(2,2-dichloro-1-methylethyloxy)pyrimidine]: 0; `CC#CCOc1cc(OC(C)C2CCCC2)ncn1` (stereo not drawn) [present compound (26), 4-(2-butynyloxy)-6-(1-cyclopentylethyloxy)pyrimidine]: 0; `CCC#CCOc1cc(OC(C)C(C)(C)F)ncn1` (stereo not drawn) [present compound (17), 4-(2-fluoro-1,2-dimethylpropyloxy)-6-(2-pentynyloxy)pyrimidine]: 0. With `CC#CCOc1cc(OC(C)CC(C)(C)C)ncn1` (stereo not drawn) [present compound (7), 4-(2-butynyloxy)-6-(1,3,3-trimethylbutyloxy)pyrimidine], the “number of surviving pests” value was 0.

The values above are taken from patent US7223769B2, “Pyrimidine compounds and their use as pesticides” (Sumitomo Chemical Company, Limited, priority 2002, dated 2007).
